Patent US9961848B2, “Soybean event 127 and methods related thereto” (EMPRESA BRASILEIRA DE PESQUISA AGROPECUARIA—EMBRAPA, priority 2009, dated 2018)

What was measured:
Assay type in all cases: in vivo
[1] = tested on: EPHHL = Euphorbia heterophylla; assay: Field weed control, burn down application; conditions: burn down 5 days before planting, g ai/ha Glyphosate 1080, Imazapic 70, Imazapic + imazapyr 70
Description: (§3) All the procedures from planting to harvest were the same for all three locations. The herbicides were applied at burn down five days before the soybean planting.
(§4) A completely randomized block design with three replications was used.
(§5) Imidazolinone-tolerant soybean derived from event 127 was planted 5 cm deep at population of 380,000 seeds/ha in 50 cm row spacing. The imidazolinones herbicides were applied with a nonionic adjuvant, Dash, at 0.25% v/v. A CO^2 backpack sprayer with 80015 low pressure nozzles delivering 170 l/ha at 190 kpa was used for all herbicide applications (Table 18).
(§6) Crop injury was assessed 15 and 30 days after planting (DAP) based on a 0 to 100 scale where 0 is no injury and 100 is crop death. Herbicide efficacy was assessed at 15, 30 and 60 DAP based on a 0 to 100 scale, where 0 is no control and 100 is total control.

[2] = tested on: IPOGR = Ipomoea grandifolia; assay: Field weed control, early post-emergence application; conditions: gai/ha Imazapyr 72, Imazapyr + imazapic 70, Glyphosate 540
[3] = tested on: EPHHL = Euphorbia heterophylla; assay: as above; conditions: gai/ha Imazapyr 72, Imazapyr + imazapic 70, Glyphosate 540
[4] = tested on: BOILF = Spermacoce latifolia; assay: as above; conditions: gai/ha Imazapyr 72, Imazapyr + imazapic 70, Glyphosate 540
[5] = tested on: RCHBR = Richardia brasiliensis; assay: as above; conditions: gai/ha Imazapyr 72, Imazapyr + imazapic 70, Glyphosate 540
[6] = tested on: COMBE = Commelina benghalensis; assay: as above; conditions: gai/ha Imazapyr 72, Imazapyr + imazapic 70, Glyphosate 540
SIDRH = Sida rombifolia = assay: as above; conditions: gai/ha Imazapyr 72, Imazapyr + imazapic 70, Glyphosate 540
[7] = tested on: COMBE = Commelina benghalensis; assay: Field weed control, burn down application; conditions: burn down 5 days before planting, g ai/ha Glyphosate 1080, Imazapic 70, Imazapic + imazapyr 70
Description: as §3, §4, §5, §6

[8] = tested on: glyphosate resistant horseweed; assay: Greenhouse injury rate, preemergence application; conditions: 25 DAT, 774 g ae/ha
Description: (§1) Greenhouse studies were conducted to determine whether imidazolinone herbicides could be used in the control of undesired glyphosate tolerant weeds and crops growing in a cultivated area. […] Plants were maintained in a greenhouse with overhead watering.
(§2) Postemergence sprays were conducted at the 2-true leaf stage for corn and soybean and at the 9-true leaf stage for horseweed. […] The percent overall injury rate was visually determined 14 days after treatment (DAT) and 25 days after treatment (DAT). […] The results of the postemergence tests are summarized in Table 20 and the results of the pre-emergence study are summarized in Table 21. Results are provided as averages of the 5 individual plants.

[9] = tested on: glyphosate resistant corn; assay: Greenhouse injury rate, preemergence application; conditions: 14 DAT, 774 g ae/ha
Description: as §1, §2

[10] = tested on: glyphosate resistant soybean; assay: Greenhouse injury rate, preemergence application; conditions: 14 DAT, 774 g ae/ha
Description: as §1, §2

[11] = tested on: GASPA = Galinsoga parviflora; assay: Field weed control, burn down application; conditions: burn down 5 days before planting, g ai/ha Glyphosate 1080, Imazapic 70, Imazapic + imazapyr 70
Description: as §3, §4, §5, §6

[12] = tested on: BRAPL = Brachiaria plantaginea; assay: Field weed control, burn down application; conditions: 60 DAT, burn down 5 days before planting, g ai/ha Glyphosate 1080, Imazapic 70, Imazapic + imazapyr 70
Description: as §3, §4, §5, §6

[13] = tested on: DIGHO = Digitaria horizontalis; assay: Field weed control, burn down application; conditions: burn down 5 days before planting, g ai/ha Glyphosate 1080, Imazapic 70, Imazapic + imazapyr 70
Description: as §3, §4, §5, §6

[14] = tested on: glyphosate resistant horseweed; assay: Greenhouse injury rate, postemergence application; conditions: 774 g ae/ha
Description: as §1, §2

[15] = tested on: glyphosate resistant corn; assay: Greenhouse injury rate, postemergence application; conditions: 14 DAT, 774 g ae/ha
Description: as §1, §2

[16] = tested on: glyphosate resistant soybean; assay: Greenhouse injury rate, postemergence application; conditions: 14 DAT, 774 g ae/ha
Description: as §1, §2

BIDPI = Bidens pilosa = assay: Field weed control, burn down application; conditions: burn down 5 days before planting, g ai/ha Glyphosate 1080, Imazapic 70, Imazapic + imazapyr 70
Description: as §3, §4, §5, §6

[17] = tested on: IPOGR = Ipomoea grandifolia; assay: Field weed control, burn down application; conditions: burn down 5 days before planting, g ai/ha Glyphosate 1080, Imazapic 70, Imazapic + imazapyr 70
Description: as §3, §4, §5, §6

O=C(O)CNCP(=O)(O)O [Glyphosate, glyphosate]
Efficacy (%) ([1]; 30 DAT): 15%
Efficacy (%) ([1]; 60 DAT): 7%
Efficacy ([2]; 15 DAT): 90%
Efficacy ([2]; 30 DAT): 87%
Efficacy ([2]; 60 DAT): 73%
Efficacy ([3]; 15 DAT): 85%
Efficacy ([3]; 30 DAT): 77%
Efficacy ([3]; 60 DAT): 72%
Efficacy ([4]; 15 DAT): 82%
Efficacy ([4]; 30 DAT): 75%
Efficacy ([4]; 60 DAT): 68%
Efficacy ([5]; 15 DAT): 78%
Efficacy ([5]; 30 DAT): 57%
Efficacy ([6]; 15 DAT): 70%
Efficacy ([6]; 30 DAT): 61%
Efficacy ([6]; 60 DAT): 50%
Efficacy (SIDRH = Sida rombifolia; 15 DAT): 82%
Efficacy (SIDRH = Sida rombifolia; 30 DAT): 77%
Efficacy (SIDRH = Sida rombifolia; 60 DAT): 70%
Efficacy (%) ([7]; 30 DAT): 38%
Efficacy (%) ([7]; 60 DAT): 22%
Average Overall Injury (%) [8]: 0%
Average Overall Injury (%) [9]: 0%
Average Overall Injury (%) [10]: 0%
Efficacy (%) ([11]; 30 DAT): 19%
Efficacy (%) ([11]; 60 DAT): 12%
Efficacy (%) [12]: 25%
Efficacy (%) ([13]; 30 DAT): 60%
Efficacy (%) ([13]; 60 DAT): 41%
Average Overall Injury (%) ([14]; 14 DAT): 34%
Average Overall Injury (%) ([14]; 25 DAT): 16%
Average Overall Injury (%) [15]: 1%
Average Overall Injury (%) [16]: 1%
Efficacy (%) (BIDPI = Bidens pilosa; 30 DAT): 25%
Efficacy (%) (BIDPI = Bidens pilosa; 60 DAT): 21%
Efficacy (%) ([17]; 30 DAT): 23%
Efficacy (%) ([17]; 60 DAT): 15%
